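Cells were grown in 96-well plates and exposed to each compound for 48 hours at five concentrations; endpoints were interpolated linearly between bracketing concentrations, or set to the highest concentration if not reached. TGI denotes the concentration required for complete inhibition of growth.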
Columns and labels:
Experiment in all cases: NCI tumour cell line growth inhibition, 48 h
HCT-15 colon = tested on: HCT-15 colon
MDA-MB-435 = tested on: MDA-MB-435
KM12 colon = tested on: KM12 colon
MOLT-4 leukemia = tested on: MOLT-4 leukemia
CAKI-1 renal = tested on: CAKI-1 renal
UACC-62 melanoma = tested on: UACC-62 melanoma
RPMI-8226 leukemia = tested on: RPMI-8226 leukemia
SK-MEL-5 melanoma = tested on: SK-MEL-5 melanoma
BT-549 breast = tested on: BT-549 breast
SNB-75 CNS = tested on: SNB-75 CNS
NCI-H522 lung = tested on: NCI-H522 lung
HOP-62 NSCLC = tested on: HOP-62 NSCLC
786-0 renal = tested on: 786-0 renal
SK-MEL-2 melanoma = tested on: SK-MEL-2 melanoma
SK-OV-3 ovarian = tested on: SK-OV-3 ovarian
COLO 205 colon = tested on: COLO 205 colon
M14 melanoma = tested on: M14 melanoma
T-47D breast = tested on: T-47D breast
SF-295 CNS = tested on: SF-295 CNS
RXF 393 renal = tested on: RXF 393 renal
IGROV1 ovarian = tested on: IGROV1 ovarian
A549 NSCLC = tested on: A549 NSCLC
K-562 leukemia = tested on: K-562 leukemia
MALME-3M melanoma = tested on: MALME-3M melanoma
OVCAR-8 ovarian = tested on: OVCAR-8 ovarian
MDA-MB-231 breast = tested on: MDA-MB-231 breast
MCF7 breast = tested on: MCF7 breast
SNB-19 CNS = tested on: SNB-19 CNS
EKVX NSCLC = tested on: EKVX NSCLC
HOP-92 NSCLC = tested on: HOP-92 NSCLC
CCRF-CEM leukemia = tested on: CCRF-CEM leukemia
ACHN renal = tested on: ACHN renal
HS 578T breast = tested on: HS 578T breast
U251 CNS = tested on: U251 CNS
OVCAR-3 ovarian = tested on: OVCAR-3 ovarian
NCI-H23 lung = tested on: NCI-H23 lung
UO-31 renal = tested on: UO-31 renal
SK-MEL-28 melanoma = tested on: SK-MEL-28 melanoma
HCT-116 colon = tested on: HCT-116 colon
HCC-2998 colon = tested on: HCC-2998 colon
NCI/ADR-RES ovarian = tested on: NCI/ADR-RES ovarian
A498 renal = tested on: A498 renal
UACC-257 melanoma = tested on: UACC-257 melanoma
OVCAR-4 ovarian = tested on: OVCAR-4 ovarian
OVCAR-5 ovarian = tested on: OVCAR-5 ovarian
HT29 colon = tested on: HT29 colon
MDA-N = tested on: MDA-N
SW-620 colon = tested on: SW-620 colon
DU-145 prostate = tested on: DU-145 prostate
PC-3 prostate = tested on: PC-3 prostate
NCI-H460 lung = tested on: NCI-H460 lung
NCI-H226 lung = tested on: NCI-H226 lung
SN12C renal = tested on: SN12C renal
SF-539 CNS = tested on: SF-539 CNS
SF-268 CNS = tested on: SF-268 CNS
HL-60(TB) leukemia = tested on: HL-60(TB) leukemia
TK-10 renal = tested on: TK-10 renal
LOX IMVI melanoma = tested on: LOX IMVI melanoma

COC1OC(Cn2c(C)nc(Br)c2Br)C(O)C(O)C1O (configuration not stated)
TGI (HCT-15 colon): > 100 µM
TGI (MDA-MB-435): > 100 µM
TGI (KM12 colon): > 100 µM
TGI (MOLT-4 leukemia): > 100 µM
TGI (CAKI-1 renal): > 100 µM
TGI (UACC-62 melanoma): > 100 µM
TGI (RPMI-8226 leukemia): > 100 µM
TGI (SK-MEL-5 melanoma): > 100 µM
TGI (BT-549 breast): > 100 µM
TGI (SNB-75 CNS): > 100 µM
TGI (NCI-H522 lung): > 100 µM
TGI (HOP-62 NSCLC): > 100 µM
TGI (786-0 renal): > 100 µM
TGI (SK-MEL-2 melanoma): > 100 µM
TGI (SK-OV-3 ovarian): > 100 µM
TGI (COLO 205 colon): > 100 µM
TGI (M14 melanoma): > 100 µM
TGI (T-47D breast): > 100 µM
TGI (SF-295 CNS): > 100 µM
TGI (RXF 393 renal): > 100 µM
TGI (IGROV1 ovarian): > 100 µM
TGI (A549 NSCLC): > 100 µM
TGI (K-562 leukemia): > 100 µM
TGI (MALME-3M melanoma): > 100 µM
TGI (OVCAR-8 ovarian): > 100 µM
TGI (MDA-MB-231 breast): > 100 µM
TGI (MCF7 breast): > 100 µM
TGI (SNB-19 CNS): > 100 µM
TGI (EKVX NSCLC): > 100 µM
TGI (HOP-92 NSCLC): > 100 µM
TGI (CCRF-CEM leukemia): > 100 µM
TGI (ACHN renal): > 100 µM
TGI (HS 578T breast): > 100 µM
TGI (U251 CNS): > 100 µM
TGI (OVCAR-3 ovarian): > 100 µM
TGI (NCI-H23 lung): > 100 µM
TGI (UO-31 renal): > 100 µM
TGI (SK-MEL-28 melanoma): > 100 µM
TGI (HCT-116 colon): > 100 µM
TGI (HCC-2998 colon): > 100 µM
TGI (NCI/ADR-RES ovarian): > 100 µM
TGI (A498 renal): > 100 µM
TGI (UACC-257 melanoma): > 100 µM
TGI (OVCAR-4 ovarian): > 100 µM
TGI (OVCAR-5 ovarian): > 100 µM
TGI (HT29 colon): > 100 µM
TGI (MDA-N): > 100 µM
TGI (SW-620 colon): > 100 µM
TGI (DU-145 prostate): > 100 µM
TGI (PC-3 prostate): > 100 µM
TGI (NCI-H460 lung): > 100 µM

COC(=O)[C@]1(C)CCC[C@]2(C)[C@H]3CC[C@]4(C(C)C)OO[C@@H](O4)[C@]34O[C@@H]4C[C@H]21
TGI (NCI-H226 lung): 13.5 µM
TGI (HCT-15 colon): 7.06 µM
TGI (SN12C renal): 12 µM
TGI (MDA-MB-435): 3.89 µM
TGI (KM12 colon): 11.2 µM
TGI (CAKI-1 renal): 0.927 µM
TGI (UACC-62 melanoma): 17.7 µM
TGI (RPMI-8226 leukemia): > 100 µM
TGI (SK-MEL-5 melanoma): 8.02 µM
TGI (BT-549 breast): 10.9 µM
TGI (SNB-75 CNS): 11.2 µM
TGI (NCI-H522 lung): 3.43 µM
TGI (HOP-62 NSCLC): 7 µM
TGI (786-0 renal): 3.49 µM
TGI (SK-MEL-2 melanoma): 29.1 µM
TGI (SK-OV-3 ovarian): 4.83 µM
TGI (COLO 205 colon): 5.2 µM
TGI (M14 melanoma): 17.3 µM
TGI (T-47D breast): 3.84 µM
TGI (SF-295 CNS): 8.77 µM
TGI (RXF 393 renal): 11.6 µM
TGI (IGROV1 ovarian): 0.336 µM
TGI (SF-539 CNS): > 55.6 µM
TGI (A549 NSCLC): 3.56 µM
TGI (K-562 leukemia): > 100 µM
TGI (MALME-3M melanoma): 20.5 µM
TGI (OVCAR-8 ovarian): 26.5 µM
TGI (MDA-MB-231 breast): 15 µM
TGI (MCF7 breast): 5.75 µM
TGI (SNB-19 CNS): 24.5 µM
TGI (EKVX NSCLC): 3.71 µM
TGI (SF-268 CNS): 5.31 µM
TGI (HOP-92 NSCLC): 4.14 µM
TGI (CCRF-CEM leukemia): > 100 µM
TGI (ACHN renal): 1.75 µM
TGI (HS 578T breast): 8.65 µM
TGI (U251 CNS): 13.5 µM
TGI (OVCAR-3 ovarian): 3.65 µM
TGI (NCI-H23 lung): 23.5 µM
TGI (UO-31 renal): 1.46 µM
TGI (SK-MEL-28 melanoma): > 63.9 µM
TGI (HCT-116 colon): 3.03 µM
TGI (HCC-2998 colon): 4.88 µM
TGI (NCI/ADR-RES ovarian): 30.9 µM
TGI (HL-60(TB) leukemia): 4.88 µM
TGI (UACC-257 melanoma): 32.1 µM
TGI (OVCAR-4 ovarian): 3.73 µM
TGI (OVCAR-5 ovarian): 16.3 µM
TGI (HT29 colon): 3.91 µM
TGI (MDA-N): 6.13 µM
TGI (SW-620 colon): > 33.7 µM
TGI (TK-10 renal): 12.2 µM
TGI (DU-145 prostate): 3.07 µM
TGI (PC-3 prostate): 3.11 µM
TGI (NCI-H460 lung): 3.88 µM
TGI (LOX IMVI melanoma): 1.04 µM
